Values after ≈ are worked out from the molar mass of the structure shown.
Columns and labels:
Assay in all cases: in vitro antibacterial evaluation, MIC by broth dilution
Type in all cases: cell-based
[1] = tested on: Staphylococcus sp.; conditions: broth dilution, 18 hours at 35° C.
Method in brief: (§1)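 MIC = lowest antibiotic concentration preventing visible growth; inoculum 5×10^5 CFU/mL; drug range 64-0.06 μg/mL; Muller-Hinton II […]; NCCLS M7-A2 guidance.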

[2] = tested on: Escherichia coli; conditions: 18 hours at 35° C., strain ATCC 25922
Method in brief: as §1

[3] = tested on: Enterococcus sp.; conditions: broth dilution, 18 hours at 35° C.
Method in brief: as §1

[4] = tested on: Streptococcus sp.; conditions: broth dilution, 18 hours at 35° C.
Method in brief: as §1

- MIC Coagulase Negative Staphylococcus (GC 4547) [1]: 1 mg/L (≈ 0.726 µM)
- MIC Coagulase Negative Staphylococcus (GC 4548) [1]: 1 mg/L (≈ 0.726 µM)
- MIC Coagulase Negative Staphylococcus (GC 4549) [1]: 1 mg/L (≈ 0.726 µM)
- MIC Coagulase Negative Staphylococcus (GC 4551) [1]: 1 mg/L (≈ 0.726 µM)
- MIC Coagulase Negative Staphylococcus (ID-3941) [1]: 1 mg/L (≈ 0.726 µM)
- MIC Staphylococcus aureus (ATCC 29213) [1]: 1 mg/L (≈ 0.726 µM)
- MIC Staphylococcus aureus (GC 1131) [1]: 1 mg/L (≈ 0.726 µM)
- MIC Staphylococcus aureus (GC 4541) [1]: 1 mg/L (≈ 0.726 µM)
- MIC Staphylococcus aureus (GC 4542) [1]: 1 mg/L (≈ 0.726 µM)
- MIC Staphylococcus aureus (GC 4544) [1]: 2 mg/L (≈ 1.45 µM)
- MIC Staphylococcus aureus (GC 4545) [1]: 1 mg/L (≈ 0.726 µM)
- MIC Staphylococcus aureus-SMITH (GC 4543) [1]: 1 mg/L (≈ 0.726 µM)
- MIC Staphylococcus aureus (GC 1131) ([1]; inoculum 5×10^5 CFU/mL, strain GC 1131): 1 mg/L (≈ 0.726 µM)
- MIC Staphylococcus aureus (ATCC 29213) ([1]; strain ATCC 29213): 1 mg/L (≈ 0.726 µM)
- MIC Staphylococcus aureus (GC 4541) ([1]; strain GC 4541): 1 mg/L (≈ 0.726 µM)
- MIC Staphylococcus aureus (GC 4542) ([1]; strain GC 4542): 1 mg/L (≈ 0.726 µM)
- MIC Staphylococcus aureus (GC 4544) ([1]; strain GC 4544): 2 mg/L (≈ 1.45 µM)
- MIC Staphylococcus aureus (GC 4545) ([1]; strain GC 4545): 1 mg/L (≈ 0.726 µM)
- MIC Coagulase Negative Staphylococcus (GC 4547) ([1]; strain GC 4547): 1 mg/L (≈ 0.726 µM)
- MIC Coagulase Negative Staphylococcus (GC 4548) ([1]; strain GC 4548): 1 mg/L (≈ 0.726 µM)
- MIC Coagulase Negative Staphylococcus (GC 4549) ([1]; strain GC 4549): 1 mg/L (≈ 0.726 µM)
- MIC Coagulase Negative Staphylococcus (GC 4551) ([1]; strain GC 4551): 1 mg/L (≈ 0.726 µM)
- MIC Coagulase Negative Staphylococcus (ID-3941) ([1]; strain ID-3941): 1 mg/L (≈ 0.726 µM)
- MIC Staphylococcus aureus-SMITH (GC 4543) ([1]; strain SMITH GC 4543): 1 mg/L (≈ 0.726 µM)
- MIC Escherichia coli (ATCC 25922) [2]: 64 mg/L (≈ 46.5 µM)
- MIC Enterococcus avium (GC 4558) ([3]; Enterococcus avium (GC 4558)): 4 mg/L (≈ 2.9 µM)
- MIC Enterococcus faecalis (ATCC 29212) ([3]; Enterococcus faecalis (ATCC 29212)): 4 mg/L (≈ 2.9 µM)
- MIC Enterococcus faecalis (GC 2242) ([3]; Enterococcus faecalis (GC 2242)): 2 mg/L (≈ 1.45 µM)
- MIC Enterococcus faecalis (GC 4552) ([3]; Enterococcus faecalis (GC 4552)): 4 mg/L (≈ 2.9 µM)
- MIC Enterococcus faecalis (GC 4553) ([3]; Enterococcus faecalis (GC 4553)): 4 mg/L (≈ 2.9 µM)
- MIC Enterococcus faecalis (GC 4554) ([3]; Enterococcus faecalis (GC 4554)): 2 mg/L (≈ 1.45 µM)
- MIC Enterococcus faecium (GC 2243) ([3]; Enterococcus faecium (GC 2243)): 4 mg/L (≈ 2.9 µM)
- MIC Enterococcus faecium (GC 4556) ([3]; Enterococcus faecium (GC 4556)): 2 mg/L (≈ 1.45 µM)
- MIC Enterococcus faecium (GC 4557) ([3]; Enterococcus faecium (GC 4557)): 2 mg/L (≈ 1.45 µM)
- MIC Enterococcus faecalis (ATCC 29212) ([3]; strain ATCC 29212): 4 mg/L (≈ 2.9 µM)
- MIC Enterococcus faecalis (GC 2242) ([3]; strain GC 2242): 2 mg/L (≈ 1.45 µM)
- MIC Enterococcus faecium (GC 2243) ([3]; strain GC 2243): 4 mg/L (≈ 2.9 µM)
- MIC Enterococcus faecalis (GC 4552) ([3]; strain GC 4552): 4 mg/L (≈ 2.9 µM)
- MIC Enterococcus faecalis (GC 4553) ([3]; strain GC 4553): 4 mg/L (≈ 2.9 µM)
- MIC Enterococcus faecalis (GC 4554) ([3]; strain GC 4554): 2 mg/L (≈ 1.45 µM)
- MIC Enterococcus faecium (GC 4556) ([3]; strain GC 4556): 2 mg/L (≈ 1.45 µM)
- MIC Enterococcus faecium (GC 4557) ([3]; strain GC 4557): 2 mg/L (≈ 1.45 µM)
- MIC Enterococcus avium (GC 4558) ([3]; strain GC 4558): 4 mg/L (≈ 2.9 µM)
- MIC Streptococcus agalactiae (GC 4564) ([4]; Streptococcus agalactiae (GC 4564)): <0.5 mg/L
- MIC Streptococcus pneumoniae (GC 4565) ([4]; Streptococcus pneumoniae (GC 4565)): <0.5 mg/L
- MIC Streptococcus pyogenes (ID-3187) ([4]; Streptococcus pyogenes (ID-3187)): <0.5 mg/L
- MIC Streptococcus agalactiae (GC 4564) ([4]; strain GC 4564): <0.5 mg/L
- MIC Streptococcus pneumoniae (GC 4565) ([4]; strain GC 4565): <0.5 mg/L
- MIC Streptococcus pyogenes (ID-3187) ([4]; strain ID-3187): <0.5 mg/L
SMILES: CC(c1ccccc1)C1NC(=O)CNC(=O)C(CO)NC(=O)C(C(O)C2CNC(=N)N2C2OC(CO)C(O)C(O)C2O)NC(=O)C(C(O)C2CNC(=N)N2)NC(=O)C(Cc2ccc(OC3OC(CO)C(OC4OC5COC(CC(C)(C)C)OC5C(O)C4O)C(O)C3O)cc2)NC1=O (stereo not drawn) [Example 110, Cyclo[glycyl-β-methylphenylalanyl-O-[4-O-[4,6-O-(3,3-dimethylbutylidene)hexopyranosyl]-hexopyranosyl]tyrosyl-3-(2-iminoimidazolidin-4-yl)seryl-3-(3-hexopyranosyl-2-iminoimidazolidin-4-yl)serylseryl]]
- MIC Staphylococcus haemolyticus (GC 4546) [1]: 1 mg/L (≈ 0.726 µM)
- MIC Staphylococcus haemolyticus (GC 4546) ([1]; strain GC 4546): 1 mg/L (≈ 0.726 µM)
